“Also recorded” adds a separate entry of the source. Where two headings read alike, the source gives them in different places. In the oligonucleotide strings, read from the 5' end, every base follows the letter of its sugar. An asterisk marks phosphorothioate; unmarked linkages are phosphodiester. Other units and linkages are bracketed, terminal groups are in braces. A string of capitals states the bases alone. [s2] = phosphorodithioate linkage; d = 2'-deoxy (DNA)
Legend:
B16-F10 melanoma [1] = test: Combination with CpG in B16-F10 melanoma, tumor growth and survival; assay type: in vivo, mouse; conditions: CpG combination study; P-3Fax-Neu5Ac 0.3mg intratumoral three times per week and/or CpG 100μg peritumoral day 14 and 21
sialic acid expression = test: Sialic acid expression in tumor tissue and other organs after intratumoral injections (lectin flow cytometry); assay type: in vivo, mouse; conditions: after 3 intratumoral injections
CD8+ cells = test: Tumor infiltration of immune cells after intratumoral injections (flow cytometry); assay type: in vivo, mouse; conditions: after 3 intratumoral injections, 0.3mg
9464D neuroblastoma = test: Intratumoral treatment of subcutaneous 9464D neuroblastoma, tumor growth; assay type: in vivo, mouse; conditions: 10mg/kg or 20m/kg intratumoral three times per week until day 50, C57BL/6 mice
mouse melanoma cells = conditions: cited from earlier work
B16-F10 melanoma [2] = test: Intratumoral treatment of subcutaneous B16-F10 melanoma, tumor growth; assay type: in vivo, mouse; conditions: stand-alone, 0.3mg (10mg/kg) or 1mg (30mg/kg) intratumoral, three times per week for four weeks, C57BL/6 mice
mammalian cells = conditions: Rillahan et al, 2012, cited from earlier work
B16-F10 melanoma [3] = test: Effect on B16-F10 tumor growth after depletion of effector immune cells; assay type: in vivo, mouse
melanoma cells = conditions: Büll et al, 2013; cited from earlier work
tumor cells = conditions: Büll et al, 2013; cited from earlier work
[4] = system: Human monocyte-derived dendritic cells; test: TLR-mediated maturation of human monocyte-derived dendritic cells (CD80); assay type: cell-based; conditions: six donors, four days with P-3Fax-Neu5Ac, then 24 hours polyI/C, R848 or LPS
[5] = system: Mouse bone marrow-derived dendritic cells; test: TLR-mediated maturation of mouse bone marrow-derived dendritic cells (CD80); assay type: cell-based; conditions: three days with P-3Fax-Neu5Ac, then 24 hours LPS, CpG or polyI/C

COC(=O)C1(OC(C)=O)OC(C(OC(C)=O)C(COC(C)=O)OC(C)=O)C(NC(C)=O)C(OC(C)=O)C1F (stereo not shown) [P-3Fax-Neu5Ac]
median survival time / survival time (B16-F10 melanoma [1]): slightly prolonged the survival time | sialic acid expression in tumor tissue (sialic acid expression; 0.3mg or 1mg, MALII, SNA-I or PNA lectin): block sialic acid expression in the tumor mass; also recorded: reduction of sialic acid expression in the isolated tumor tissue | sialic acid expression in other organs such as the spleen (sialic acid expression; fluorescent sialic acid binding lectins): not other organs such as the spleen | infiltration of immune cells in the tumor (CD8+ cells): enhanced infiltration of immune cells, especially CD8+ cells in the tumor | tumor growth (9464D neuroblastoma): hamper 9464D neuroblastoma growth | expression of sialic acids in melanoma / cancer cells (mouse melanoma cells; Büll et al, 2013, listed as glycomimetic): potently blocks sialic acid synthesis and expression in cancer cells | duration of the blocking effect (mouse melanoma cells; Büll et al, 2013): almost four days | expression of sialic acids in melanoma / cancer cells (mouse melanoma cells; Büll et al, 2013): blocks the expression of sialic acids in mouse melanoma cells with high efficiency | tumor growth (B16-F10 melanoma [2]): hamper B 16-F 10 melanoma growth; also recorded: antagonizes tumor growth in a dose-dependent manner | tumor growth (B16-F10 melanoma [2]; listed as glycomimetic): delayed tumor growth modestly | depletion of sialic acids from mammalian cells (mammalian cells): deplete sialic acids from mammalian cells | cellular cytotoxicity (mammalian cells; mammalian cells): without causing cellular cytotoxicity | tumor growth suppression mediated by CD8+ cells (B16-F10 melanoma [3]; B16-F10 melanoma model, CD8+ depleted versus non-depleted mice): mediated by effector CD8+ immune cells | effect of sialic acid blockade on tumor growth upon CD4+ cell depletion (B16-F10 melanoma [3]; CD4+ cell depletion, 0.3mg intratumoral three times per week): unaffected | effect of sialic acid blockade on tumor growth upon CD8+ cell depletion (B16-F10 melanoma [3]; CD8+ cell depletion, 0.3mg intratumoral three times per week): CD8+ cell depletion abrogated the effect of sialic acid blockade on tumor growth | effect of sialic acid blockade on tumor growth upon K1.1+ cell depletion (B16-F10 melanoma [3]; K1.1+ cell depletion, 0.3mg intratumoral three times per week): unaffected | growth of melanoma cells treated with the inhibitor before injection into mice (melanoma cells): grow significantly slower | adhesion and migration of tumor cells (tumor cells): can impair adhesion and migration of tumor cells | activation / maturation of dendritic cells (CD80 expression) [4]: enhances APC maturation with TLR ligands; also recorded: strongly enhances activation of dendritic cells | activation / maturation of dendritic cells (CD80 expression) [5]: enhances APC maturation with TLR ligands; also recorded: strongly enhances activation of dendritic cells

CpG: CpG oligodeoxynucleotide immune adjuvant; more preferred: phosphodithioate backbone and sequence 5'-TCCATGACGTTCCTGATGCT-3' (DNA dT[s2]dC[s2]dC[s2]dA[s2]dT[s2]dG[s2]dA[s2]dC[s2]dG[s2]dT[s2]dT[s2]dC[s2]dC[s2]dT[s2]dG[s2]dA[s2]dT[s2]dG[s2]dC[s2]dT)
median survival time / survival time (B16-F10 melanoma [1]): no effect on tumor growth and median survival time | tumor growth (B16-F10 melanoma [1]): almost no effect on tumor growth

— patent WO2016071431A1, “A combination for cancer therapy” (Stichting Katholieke Universiteit, priority 2014, dated 2016)
